Laboratory results as given in patent US10087448B2, “Synthetic lethality in cancer” (The Governors of the University of Alberta, priority 2010, dated 2018).
Entries after “also recorded” stand apart in the source; their conditions may differ.

What was measured:
[1] = tested on: Karpas 299 cells (naturally SHP-1−/−); assay: Cell proliferation assay with ALCL cell lines (Alamar Blue), PNKP inhibition; assay type: cell-based; conditions: Karpas 299 (SHP-1−/−), approximately 10 μM, 12-16 days
Procedure: (§1) Karpas 299 or SUPM2 cells were plated in 96-well format at a concentration of 5,000 cells/100 μL in complete RPMI. Increasing concentrations of the PNKP inhibitor A12B4C3 was added to each well at a constant concentration of DMSO and left to incubate for 12-16 days. 11 μL of 440 μM Alamar Blue was then loaded onto the plates and left to incubate for 24-48 hours after which fluorescence was determined as described above.

[2] = tested on: SUPM2 cells (naturally SHP-1+/+); assay: as above; assay type: cell-based; conditions: SUPM2 (SHP-1+/+), approximately 10 μM, 12-16 days
Procedure: as §1

[3] = tested on: HCT116 PTEN deleted cells (#22 and #35); assay: Colony forming assay under PNKP inhibition; assay type: cell-based; conditions: PTEN deleted HCT116, increasing concentrations
Procedure: (§2) The effect of survival of simultaneous disruption of two proteins was conducted using the clonogenic survival assay. To allow cells time to adhere to the plates, cells were seeded 24 h in advance. Cells were treated with the PNKP inhibitor A12B4C3 for 9-14 consecutive days in triplicate at 0 μM, 0.1 μM, 1 μM, and 10 μM final concentration where 100 cells were plated for the 0 μM, 0.1 μM and 1 μM concentration groups and 300 cells in the 10 μM concentration group. Colonies were then stained with a crystal violet containing 20% methanol for one hour after which the plates were washed in warm water and left to dry overnight. Colonies of 50+ cells were then counted using an automated colony counter (Oxford Optronix, Oxford, UK).

[4] = tested on: HCT116 PTEN wildtype cells (HCT116 parental and Neo124 vector only); assay: Colony forming assay under PNKP inhibition; assay type: cell-based; conditions: PTEN proficient HCT116, increasing concentrations
Procedure: as §2

HCT116 cells = assay: Colony-forming assay with γ-radiation (synthetic sickness); assay type: cell-based
Procedure: as §2
For the indicated colony-forming assays, cells were treated with 0, 1, 2, 4, 6, or 8 Gy of γ-radiation (^60Co Gammacell; Atomic Energy of Canada Limited, Ottawa, Canada).
These HCT116 cells were then subjected to additional testing to determine if disruption of PNKP in PTEN negative cells would hypersensitize these cells to ionizing radiation. These assays to determine ‘synthetic sickness’ were done using […] A12B4C3, which was added to the cells 24 h before irradiation in a colony-forming assay. After one day the cells were subjected to 0, 1, 2, 4, 6, or 8 Gy of γ-radiation. […]

[5] = tested on: PC3 cell lines lacking functional PTEN (p.R55fs*1, WT RAD51, p.BABE.puro, p.C124S, PC3 parental); assay: Survival of PC3 cells in response to PNKP inhibition; assay type: cell-based; conditions: doses ≥10 μM, 12-16 days
Procedure: as §2
(§3) To investigate the feasibility of taking advantage of the newly identified partnership between PTEN and PNKP, we subjected the prostate cancer cell line, PC3 (naturally PTEN^−/−) to an increasing concentration of the PNKP inhibitor A12B4C3 (3) over a period of 12-16 days.

[6] = tested on: PC3 cells reconstituted with WT PTEN or p.K289E; assay: as above; assay type: cell-based; conditions: WT PTEN and p.K289E reconstituted PC3, 12-16 days
Procedure: as §2, §3

[7] = tested on: A549(Scramble) and A549δPNKP cells; assay: Mode of cell death determination (Hoescht 33342, Ethidium Homodimer III, Annexin V-FITC triple stain); assay type: cell-based, human; conditions: 100 μM, 24 to 72 hours
Procedure: A549(Scramble) or A549δPNKP cells were grown on coverslips in complete DMEM/F12 and were either transfected with ASN or SHP-1. Another control subjected these cell lines to 100 μM 5-(p-Bromobenzylidine)-α-isopropyl-4-oxo-2-thioxo-3-thiozolidineacetic acid (BH3I-1, Sigma-Aldrich, Oakville, ON), which is a known apoptosis inducer. The cells were grown under each condition for the indicated length of time before being subjected to a triple stain of Hoescht 33342, Ethidium Homodimer III and Annexin V-FITC (Biotium, Hayward, Calif.). Hoescht 33342 is an uncharged DNA stain that will stain the nuclei of healthy and non-healthy cells alike, however, Ethidium Homodimer III is a highly positively charged DNA stain that cannot readily enter cells unless there is a loss of membrane integrity. […]
To identify the mechanism in which cells undergo synthetic lethality upon simultaneous disruption of SHP-1 and PNKP, A549(Scramble) and A549δPNKP cells were grown on coverslips and transiently transfected with ASN or SHP-1 siRNA (FIGS. 21A and 21C, respectively). […] Cells were then simultaneously stained with Hoescht 33342, EthidiumHomodimer III and Annexin V-FITC, which fluoresce at different wavelengths (absorbance/emission; 350/461 nm, 528/617 nm, and 492/514 nm, respectively). […]

Structure (SMILES) | survival [1] | survival [2] | survival under PNKP inhibition [3] | survival under PNKP inhibition [4] | sensitivity to ionizing radiation (HCT116 cells; PNKP independently disrupted (PTEN proficient HCT116), 2 M A12B4C3 added 24 h before 0-8 Gy γ-radiation) | sensitivity to ionizing radiation (HCT116 cells; PTEN negative HCT116, 2 M A12B4C3 added 24 h before 0-8 Gy γ-radiation) | survival [5] | survival [6] | apoptotic cells [7]
CCCCCCCCCCC(O)C1C=CC2C(=O)N(c3ccccc3)C(=O)C2N1Nc1ccc([N+](=O)[O-])cc1 (stereo not drawn) [A12B4C3, 2-(1-hydroxyundecyl)-1-(4-nitrophenylamino)-6-phenyl-6,7a-dihydro-1H-pyrrolo[3,4-b]pyridine-5,7(2H,4aH)-dione] | marked decrease in survival | remain viable | sensitive to PNKP disruption | no effect | increase in sensitivity to ionizing radiation | increase in the sensitivity to ionizing radiation | marked decrease in survival | lethality under PNKP inhibition was rescued | 
CC(C)C(C(=O)O)N1C(=O)C(=Cc2ccc(Br)cc2)SC1=S (stereo not drawn) [BH3I-1, 5-(p-Bromobenzylidine)-α-isopropyl-4-oxo-2-thioxo-3-thiozolidineacetic acid] |  |  |  |  |  |  |  |  | substantial increase in the occurrence of apoptotic cells; also recorded: increase in apoptotic cells beginning at 24 hours and continuing on through 72 hours
